Measurements from patent US20170051149A1, “AZOARYLS AS REVERSIBLY MODULATABLE TUBULIN INHIBITORS” (ECOLE NORMALE SUPERIEURE DE LYON, priority 2014, published 2017).

Key:
[1] = tested on: MDA-MB-231 cells; assay: in cellulo tubulin imaging, immunostaining of microtubule cytoskeleton; type: cell-based; details: 20 h; for effect on microtubule structure: 390 nm regimen (200 ms every 2 min)
Protocol: In order to investigate the influence of compound I.1 on microtubule structure in cellulo, immunostaining of the microtubule cytoskeleton in MDA-MB-231 cells was performed. Cells were treated with compound I.1 and then kept in dark conditions, or exposed to 390 nm light (200 ms every 2 min), or exposed to a rescue protocol with sequential pulses of 390 nm light (200 ms every 2 min) then immediately 505 nm (600 ms every 2 min). After 20 h of treatment cells were fixed, stained and subjected to confocal microscopy.
Briefly, prior to analysis, cells were washed with pre-warmed PBS then cell extraction buffer (80 mM piperazine-N,N′-bis(2-ethanesulfonic acid) [abbreviated PIPES], 1 mM MgCl2, 5 mM EGTA-K and 0.5% Triton X-100, at pH 6.8) was added to remove monomeric and dimeric tubulin subunits. After 30 s of extraction, cells were fixed for 10 min with 0.5% glutaraldehyde. Following glutaraldehyde quenching with 0.1% NaBH4 in PBS for 7 min, coverslips were blocked with PBS containing 0.2% BSA (bovine serum albumin). Immunostaining was performed using anti-α-tubulin antibody (ab18251) and the AlexaFluor 488 secondary antibody (A 11008), purchased from Abcam (Cambridge, UK) and Invitrogen (Darmstadt, Germany), respectively. Hoechst 33342 (bisbenzimide), purchased from Sigma-Aldrich (catalogue number B2261; Taufkirchen, Germany), was used at a concentration of 1 ug/ml for nuclear staining. Cells were mounted with PermaFluor™ mounting medium (Beckman Coulter) and analyzed with a Zeiss LSM 510 Meta confocal microscope (Jena, Germany). Acquired images were processed using the ImageJ program (National Institutes of Health) and representative images are collected in FIG. 7.

[2] = tested on: HepG2 cells; assay: cell cycle analysis by PI flow cytometry; type: cell-based; details: 48 h
Protocol: (§1) The effect of compound I.1 on cell cycle progression was assessed by flow cytometry. Briefly, following the application of compound I.1 and exposure to the indicated light regime, cells were harvested on ice and incubated in a hypotonic buffer [0.1% sodium citrate, 0.1% Triton X-100 and 50 μg/mL propidium iodide (PI)] for 30 min at 4° C. Following the PI staining cells were analysed by flow cytometry using FACSCalibur flow cytometer (Becton Dickinson, Heidelberg, Germany) and Cell Quest Pro Software (Becton Dickinson). Subsequently the cell cycle analysis was performed using the FlowJo software (Tree Star Inc., Ashland, Oreg., USA).

[3] = tested on: MDA-MB-231 cells; assay: cell cycle analysis by PI flow cytometry; type: cell-based
Protocol: as §1

[4] = tested on: HeLa; assay: cell cycle analysis by PI flow cytometry; type: cell-based; details: 30 h
Protocol: as §1

[5] = fluorescence spectrophotometry (excitation and emission spectra); type: physicochemical
Protocol: Absorption spectra in cuvette (“UV-Vis”) were acquired on a Varian CaryScan 50 (1 cm, 100 μL or 1 mL volume) with Peltier cell temperature control unit maintained at 37° C., in PBS at pH˜7.4 containing a low percentage of cosolvent if needed (typically 2% MeCN or 5% DMSO). A ThorLabs Polychrome V monochromator with a fibre optic cable output directed into the cuvette was used to perform photoisomerisation studies by UV-Vis spectrophotometry although single LEDs of approximately 10-20 mW output, 15-20° cone angle, and 10-15 nm bandwidth FWHM, obtained commercially from Roithner Lasertechnik GmbH, were equally successful in providing repeatable monochromatic photoisomerisation. Separated spectra of trans and […] forms were acquired from the inline Diode Array Detector on the AGILENT 1260 SL coupled LC-MS system after HPLC separation. Fluorescence spectrophotometry (excitation and emission spectra) were acquired on a Varian CaryEclipse fluorescence spectrophotometer.
Fluorescence imaging is commonly used to sensitively, conveniently and non-invasively determine the local concentration of fluorescent species in biological and medical settings. Considering I.25 as an example of a compound of the invention bearing a fluorescent reporter, it was considered desirable that its rhodamine moiety would allow fluorescence detection of I.25.

[6] = 10 nM, 390 nm (150 ms every 30 s), 48 h
[7] = 20 nM, 390 nm (150 ms every 30 s), 48 h
[8] = 50 nM, 390 nm (150 ms every 30 s), 48 h
[9] = 100 nM, 390 nm (150 ms every 30 s), 48 h
[10] = 400 nM, 390 nm (150 ms every 30 s), 48 h
[11] = 600 nM, 390 nm (150 ms every 30 s), 48 h
[12] = 800 nM, 390 nm (150 ms every 30 s), 48 h
[13] = 1 μM, 390 nm (150 ms every 30 s), 48 h
[14] = 2 μM, 390 nm (150 ms every 30 s), 48 h
[15] = 5 μM, 390 nm (150 ms every 30 s), 48 h

Compound: COc1ccc(N=Nc2cc(OC)c(OC)c(OC)c2)cc1O [I.1, 2-methoxy-5-((3,4,5-trimethoxyphenyl)diazenyl)phenol]
- effect on microtubule structure ([1]; 1.5 μM): degradation of the microtubule cytoskeleton
- effect on microtubule structure ([1]; 4 μM): complete microtubule breakdown plus fragmentation of the nuclei
- nuclear fragmentation and microtubule destruction ([1]; kept in the dark): not observed
- effect of rescue protocol on signs of cytotoxic effects ([1]; rescue: 390 nm (200 ms) then 505 nm (600 ms) every 2 min): dose-dependent reduction of the signs of cytotoxic effects
- mean % G2/M phase ([2]; 100 nM, 390 nm (250 ms every 15 s)): 7.8%
- mean % G2/M phase ([2]; 100 nM, dark): 10.0%
- mean % G2/M phase ([2]; 600 nM, 390 nm (250 ms every 15 s)): 9.4%
- mean % G2/M phase ([2]; 600 nM, dark): 8.6%
- mean % G2/M phase ([2]; 1 μM, 390 nm (250 ms every 15 s)): 10.7%
- mean % G2/M phase ([2]; 1 μM, dark): 10.1%
- mean % G2/M phase ([2]; 3 μM, 390 nm (250 ms every 15 s)): 9.3%
- mean % G2/M phase ([2]; 3 μM, dark): 11.2%
- mean % G2/M phase ([2]; 10 μM, 390 nm (250 ms every 15 s)): 42.3%
- mean % G2/M phase ([2]; 10 μM, dark): 11.7%
- % G1 [3, 6]: 74.6%
- % G2 [3, 6]: 1.9%
- % S [3, 6]: 17.1%
- mean % G2/M phase [3, 6]: 1.9%
- mean % G2/M phase ([3]; 10 nM, 390 nm + 515 nm (rescue), 48 h): 0.8%
- mean % G2/M phase ([3]; 10 nM, 515 nm (500 ms every 30 s), 48 h): 1.1%
- % G1 [3, 7]: 79.5%
- % G2 [3, 7]: 2.5%
- % S [3, 7]: 18.0%
- % G1 [3, 8]: 77.1%
- % G2 [3, 8]: 1.8%
- % S [3, 8]: 18.0%
- % G1 [3, 9]: 76.6%
- % G2 [3, 9]: 2.0%
- % S [3, 9]: 18.5%
- mean % G2/M phase [3, 9]: 2.0%
- mean % G2/M phase ([3]; 100 nM, 390 nm + 515 nm (rescue), 48 h): 0.9%
- mean % G2/M phase ([3]; 100 nM, 515 nm (500 ms every 30 s), 48 h): 1.2%
- mean % G2/M phase ([3]; 200 nM, 390 nm (1 s every 15 min), 30 h): 8.2%
- mean % G2/M phase ([3]; 200 nM, dark, 30 h): 14.3%
- % G1 [3, 10]: 53.1%
- % G2 [3, 10]: 15.1%
- % S [3, 10]: 27.6%
- mean % G2/M phase [3, 10]: 15.1%
- mean % G2/M phase ([3]; 400 nM, 390 nm + 515 nm (rescue), 48 h): 6.4%
- mean % G2/M phase ([3]; 400 nM, 515 nm (500 ms every 30 s), 48 h): 8.2%
- mean % G2/M phase ([3]; 600 nM, 390 nm (1 s every 15 min), 30 h): 16.3%
- % G1 [3, 11]: 18.0%
- % G2 [3, 11]: 42.6%
- % S [3, 11]: 31.0%
- mean % G2/M phase [3, 11]: 42.6%
- mean % G2/M phase ([3]; 600 nM, 390 nm + 515 nm (rescue), 48 h): 17.3%
- mean % G2/M phase ([3]; 600 nM, 515 nm (500 ms every 30 s), 48 h): 21.7%
- mean % G2/M phase ([3]; 600 nM, dark, 30 h): 12.8%
- % G1 [3, 12]: 9.5%
- % G2 [3, 12]: 54.2%
- % S [3, 12]: 27.5%
- mean % G2/M phase [3, 12]: 54.2%
- mean % G2/M phase ([3]; 800 nM, 390 nm + 515 nm (rescue), 48 h): 24.7%
- mean % G2/M phase ([3]; 800 nM, 515 nm (500 ms every 30 s), 48 h): 32.5%
- % G1 [3, 13]: 5.5%
- % G2 [3, 13]: 52.9%
- % S [3, 13]: 27.6%
- mean % G2/M phase [3, 13]: 52.9%
- mean % G2/M phase ([3]; 1 μM, 390 nm + 515 nm (rescue), 48 h): 22.3%
- mean % G2/M phase ([3]; 1 μM, 515 nm (500 ms every 30 s), 48 h): 28.4%
- mean % G2/M phase ([3]; 1.5 μM, 390 nm (1 s every 15 min), 30 h): 40.6%
- mean % G2/M phase ([3]; 1.5 μM, dark, 30 h): 13.1%
- % G1 [3, 14]: 4.8%
- % G2 [3, 14]: 60.1%
- % S [3, 14]: 26.4%
- mean % G2/M phase ([3]; 5 μM, 390 nm (1 s every 15 min), 30 h): 49.4%
- % G1 [3, 15]: 5.0%
- % G2 [3, 15]: 70.2%
- % S [3, 15]: 23.9%
- mean % G2/M phase ([3]; 5 μM, dark, 30 h): 13.8%
- mean % G2/M phase ([4]; 200 nM, 390 nm (1 s every 15 min)): 26.2%
- mean % G2/M phase ([4]; 200 nM, dark): 23.5%
- mean % G2/M phase ([4]; 600 nM, 390 nm (1 s every 15 min)): 33.7%
- mean % G2/M phase ([4]; 600 nM, dark): 24.8%
- mean % G2/M phase ([4]; 1.5 μM, 390 nm (1 s every 15 min)): 59.9%
- mean % G2/M phase ([4]; 1.5 μM, dark): 27.1%
- mean % G2/M phase ([4]; 5 μM, 390 nm (1 s every 15 min)): 68.7%
- mean % G2/M phase ([4]; 5 μM, dark): 28.4%

Compound: CCN(CC)c1ccc2c(-c3ccccc3C(=O)N3CCN(CCCOc4c(N=Nc5cc(OC)c(OC)c(OC)c5)ccc(OC)c4C)CC3)c3ccc(=[N+](CC)CC)cc-3oc2c1.CCN(CC)c1ccc2c(-c3ccccc3C(=O)N3CCN(CCCOc4c(N=Nc5cc(OC)c(OC)c(OC)c5)ccc(OC)c4C)CC3)c3ccc(=[N+](CC)CC)cc-3oc2c1.O=C[O-].O=C[O-] [I.25, N-(6-(diethylamino)-9-(2-(4-(3-(3-methoxy-2-methyl-6-((3,4,5-trimethoxyphenyl)diazenyl)phenoxy)propyl)piperazine-1-carbonyl)phenyl)-3H-xanthen-3-ylidene)-N-ethylethanaminium bis(formate) salt]
- excitation wavelength giving maximum emission intensity ([5]; emission at 590 nm): 570 nm
- fluorescence emission maximum ([5]; excited at 380 nm or 554 nm, 10 μM, 60:32:8 EtOH:PBS:MeCN, 25° C.): 590 nm
